Measurements from ChEMBL document CHEMBL3507680, “University of Dundee, Gates Library screen for HepG2 cell viability”.

Experiment: Human HepG2 cell viability assay in 384 well format
Type: toxicity, cell-based
Design: dose 125 nL, time 70.5 hour; concentration not given beside the values
Settings: HepG2 cells, read-out: Inhibition

Compound | cytotoxicity at 70.5 h
NCCn1cc(C(=O)NCc2ccccc2-n2cccn2)nn1 | -4.33%
COCc1c(C(=O)N2CCCC(C(=O)c3ccccc3)C2)noc1C (stereo unspecified) | -3.85%
Cn1cc2ncn(CCNc3cccnc3)c(=O)c2n1 | -3.81%
Cc1cc(C(=O)N2C[C@H]3CC[C@@H]2CN(C)C3)ccc1Cl | 29.4%
OCCO[C@H]1C[C@@H](O)C12CCN(Cc1nc(C(F)(F)F)no1)CC2 | -8.19%
CSc1ncc(C(=O)N2C[C@@H](NC(C)=O)[C@H](c3ccc(C)cc3)C2)cn1 | -5.41%
CO[C@H]1CN(C(C)C)C[C@@H]1NC(=O)c1cc(-c2ccccc2O)n[nH]1 | -1.03%
Cc1nc(CNC(=O)CC2C(=O)NCCN2CCC(C)C)n[nH]1 (stereo unspecified) | -8.3%
COc1ccccc1OC1(C(=O)O)CCN(c2cc(C)nc(C)c2)CC1 | -0.575%
O=C(C1CCC1)N1CC[C@]2(O)CCN(Cc3ncccn3)C[C@@H]2C1 | -9.87%
COCCC1CCCCN1Cc1nc(Cc2cccc(F)c2)no1 (stereo unspecified) | -2.75%
CSCC(=O)N1CCc2c(cnc(C)c2-c2noc(-c3cc[nH]n3)n2)C1 | -12.6%
Cc1ccc(C)c(OC(C)C(=O)NCCNc2cccnc2)c1 (stereo unspecified) | -0.127%
COCCN(C)C[C@@H]1CN(C(=O)c2ccc(O)c(Cl)c2)C[C@@H]1CO | -4.52%
CN(C)[C@H]1CN(C(=O)c2ccc3sc4c(c3c2)CCNC4=O)C[C@@H]1O | -1.45%
CCCc1nnc(N2CCN(c3ccccc3OCC)CC2)o1 | -4.12%
C/C(=C\c1ccco1)CN(C)C(C)Cc1ccccn1 (stereo unspecified) | 16%
CCOc1ccccc1C(=O)N1CCCC(c2nccn2CCOC)C1 (stereo unspecified) | 10.7%
CCc1nnc(NCc2cccc(OC)c2OC)o1 | 8.49%

Compound | cytotoxicity at 70.5 h
Cc1ccnc(NCc2cn3nc(C)sc3n2)n1 | 1.46%
COc1ccc(-n2ncc(C(C)NC3Cc4ccccc4C3)c2C)cc1 (stereo unspecified) | 5.61%
CCc1cc(CN(C)Cc2nc(-c3ccc(OC)cc3F)oc2C)on1 | -5.4%
Cc1nc(N2CCCN(C(=O)c3ccsc3)CC2)c2cnn(C)c2n1 | -2.94%
CCCNC(=O)NC(=O)CNC(C)(C)c1ccc2c(c1)OCO2 | -0.993%
Cn1cc(C(=O)N2CCN(c3ncccn3)CC2)ccc1=O | -2.44%
CC(c1nc(C2CC2)no1)N1CCN(CCN2CCCC2=O)CC1 (stereo unspecified) | -0.249%
O=C(CC1CCCO1)N1CCCN(c2cccnn2)CC1 (stereo unspecified) | -3.32%
CCc1cnc(CN(C)C2CCN(Cc3nnc(C4CC4)n3C)C2)o1 (stereo unspecified) | -2.36%
CC(C)(NCC(=O)NC(=O)NC1CC1)c1ccc2c(c1)OCO2 | -3.04%
Cc1ccc(N2CCCN(C(=O)C3CCCO3)CC2)nn1 (stereo unspecified) | 4.49%
CCc1noc(C(C)N2CCN(CCN3CCCC3=O)CC2)n1 (stereo unspecified) | -2.78%
COc1cccc(N2CCC(CNCc3cccc(C#N)c3)C2)c1 (stereo unspecified) | 9.04%
Cc1cnn(CC2CCCN2Cc2nnc(-c3ccccc3)o2)c1 (stereo unspecified) | -4.64%
CC(C)n1cc(CN2CCCN(C(=O)C3CCOC3)CC2)cn1 (stereo unspecified) | 19.9%
Cc1nc(C)n(CC2CCCN(Cc3ccccc3C#N)C2)n1 (stereo unspecified) | 22.8%
COc1cc(CNCc2c(C)nn(CC(C)C)c2N(C)C)ccn1 | 27.3%
CC(C)n1cc(CN2CCCN(C(=O)CN3CCCC3=O)CC2)cn1 | 58%
CC(C)n1cc(CN2CCCN(C(=O)C(C)n3cncn3)CC2)cn1 (stereo unspecified) | 3.68%

Compound | cytotoxicity at 70.5 h
Cc1cnn(CC(=O)N2CCCN(Cc3cnn(C(C)C)c3)CC2)c1 | -0.435%
CSCCC(=O)N1CCCN(Cc2cnn(C(C)C)c2)CC1 | 34.5%
CC(C)n1cc(CN2CCCN(C(=O)COC3CCCC3)CC2)cn1 | 1.39%
Cc1nn(CC(C)C)c(N(C)C)c1CNCc1ccc(CO)c(F)c1 | 1.46%
CC(NCc1ccc(F)cc1)c1ccc2[nH]c(=O)[nH]c2c1 (stereo unspecified) | 0.625%
Cc1cnn(C2CCCN(C(=O)CCc3cnn(C)c3)C2)c1 (stereo unspecified) | -4.01%
Cc1nc(C)n(CC2CCCN(Cc3ccc4c(c3)OCCO4)C2)n1 (stereo unspecified) | -1.48%
CC(C)c1nc(C2CCCN(C(=O)CCCn3ccnc3)C2)no1 (stereo unspecified) | -0.752%
CCOc1ccc(C(=O)N2CCCC2c2c(C)nn(C)c2Cl)cn1 (stereo unspecified) | -1.78%
Brc1cccc(-c2noc(CN3CCOCC3)n2)c1 | -2.61%
COc1ccc(NC(=O)C(C)n2cncn2)cn1 (stereo unspecified) | -2.08%
CC(C(=O)NCc1ccc(N2CCCC2)nc1)n1cncn1 (stereo unspecified) | -0.612%
CC1COCCN1Cc1nc(-c2ccsc2)no1 (stereo unspecified) | -3.54%
CC(C(=O)Nc1ccc(N2CCCC2)nc1)n1cccn1 (stereo unspecified) | -0.411%
Cc1cnn(C2CCCN(C(=O)Cc3ccc(C)s3)C2)c1 (stereo unspecified) | -0.137%
Cc1cnn(C2CCCN(C(=O)CCc3ccncc3)C2)c1 (stereo unspecified) | -0.811%
CC(C)n1cc(CN2CCCN(C(=O)C(C)n3cccn3)CC2)cn1 (stereo unspecified) | -2.97%
COc1c(C)cc(CNCc2ccnc(N3CCOCC3)c2)cc1C | 2.82%
